Data taken from US9963462B2 (priority 2015, dated 2018).

Key:
[1] = system: BH4 levels in SK-N-BE (2) cells; assay: SKN-N-BE (2) cellular assay, BH4 levels by LC-MS; type: cell-based; details: Homo sapiens, SKNBE2, read-out: SK-N-BE(2) IC50, SK-N-BE (2) cells, BH4 levels by LC-MS
[2] = molecular target: SNAP-hSPR (sepiapterin reductase, SPR) (Homo sapiens, UniProt P35270); assay: biochemical; type: binding; details: terbium labelled SNAP-hSPR / SSZ labelled SNAP-EGFP; read-out: hTR-FRET IC50
Sequence of SNAP-hSPR (sepiapterin reductase, SPR) (P35270 whole entry): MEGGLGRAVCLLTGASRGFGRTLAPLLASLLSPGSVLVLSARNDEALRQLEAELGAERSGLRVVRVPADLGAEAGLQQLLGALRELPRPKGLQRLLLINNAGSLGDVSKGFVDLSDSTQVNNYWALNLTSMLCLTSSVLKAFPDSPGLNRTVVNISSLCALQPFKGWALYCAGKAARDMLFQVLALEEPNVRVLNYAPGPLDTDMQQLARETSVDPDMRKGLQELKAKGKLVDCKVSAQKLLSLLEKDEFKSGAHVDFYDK
Description: TR-FRET Assay: A TR-FRET (homogeneous, time-resolved, fluorescence resonance energy transfer) assay was used to assess activity of compounds following standard assay conditions. […] Compounds were screened at different concentrations and IC50 values calculated.
Terbium labelled SNAP-hSPR and SSZ (sulfasalazine) labelled SNAP-EGFP were used as the protein pair in this assay. Compounds were screened at different concentrations, and 1050 and Kd values calculated.

Row | Compound | IC50 [1] [µM] | IC50 [2] [µM]
1 | Cc1c(C(=O)N2CCN(c3ccc(F)cc3F)CC2)cnn1-c1nc2c(c(=O)[nH]1)CCC2 [Q-0567] | 0.02 | 0.003
2 | Cc1c(C(=O)N2CCC(c3nc4ccccc4s3)CC2)cnn1-c1nc2sccc2c(=O)[nH]1 [Q-0574] | 0.047 | 0.006
3 | Cc1c(C(=O)N2CC3CN(c4ccccc4)CC3C2)cnn1-c1nn2cccc2c(=O)[nH]1 (centres unmarked) [Q-0846] | 0.2 | 0.002
4 | Cc1c(C(=O)N2CCC(Oc3ccccc3)CC2)cnn1-c1nc2c(c(=O)[nH]1)CCC2 [Q-0462] | 0.094 | 0.005
5 | Cc1c(C(=O)N2C3CCC2CN(C(=O)OC(C)(C)C)C3)cnn1-c1nc2c(c(=O)[nH]1)CCC2 [Q-0745] | 0.2 | 0.004
6 | CC(C)(C#N)C1CCN(C(=O)c2cnn(-c3nc4c(c(=O)[nH]3)CCC4)c2C2CC2)CC1 [Q-0553] | 0.2 | 0.006
7 | Cc1c(C(=O)N2CCCCC2c2cccnc2)cnn1-c1nc2c(c(=O)[nH]1)CCC2 (centres unmarked) [Q-0505] | 0.1 | 0.004
8 | O=C(c1cnn(-c2nc3c(c(=O)[nH]2)CCC3)c1C1CC1)N1CCC(c2nc3ccccc3s2)CC1 [Q-0546] | 0.084 | 0.009
9 | COC1CCCN(C(=O)c2cnn(-c3nc4c(c(=O)[nH]3)CCC4)c2C)C1 (centres unmarked) [Q-0482] | 1 | 0.008
10 | Cc1c(C(=O)N2CCC(C)CC2C)cnn1-c1nc2ccsc2c(=O)[nH]1 (centres unmarked) [Q-0400] | 0.2 | 0.004
11 | Cc1c(C(=O)N2CCC(C(F)(F)F)CC2)cnn1-c1nn2c(F)ccc2c(=O)[nH]1 [Q-0606] | 0.051 | 0.002
12 | COC(=O)C12CC(C(=O)N3CCN(C(=O)c4cnn(-c5nc6c(c(=O)[nH]5)CCC6)c4C)CC3)(C1)C2 [Q-0612] | 2.6 | 0.01
13 | Cc1c(C(=O)N(C)CCc2c[nH]c3ccccc23)cnn1-c1nc2c(c(=O)[nH]1)CCC2 [Q-0497] | 0.4 | 0.009
14 | Cc1c(C(=O)N2CC(C)(C)OC(C)(C)C2)cnn1-c1nc2ccsc2c(=O)[nH]1 [Q-0405] | 1.5 | 0.01
15 | Cc1c(C(=O)N2CCC3(CCCCN3C(=O)OC(C)(C)C)C2)cnn1-c1nc2ccsc2c(=O)[nH]1 (centres unmarked) [Q-0579] | 0.1 | 0.005
16 | Cc1c(C(=O)N2CCC(c3c[nH]c4ccccc34)CC2)cnn1-c1nc2ccsc2c(=O)[nH]1 [Q-0560] | 0.012 | 0.003
17 | Cc1c(C(=O)N2CCC(C(F)(F)F)CC2)cnn1-c1nc2c(ccn2C)c(=O)[nH]1 [Q-0426] | 16 | 0.1
18 | Cc1cc(=O)[nH]c(-n2ccc(C(=O)N3CCc4ccccc4C3)n2)n1 [Q-0308, 6-methyl-2-[3-(1,2,3,4-tetrahydroisoquinoline-2-carbonyl)-1H-pyrazol-1-yl]-3,4-dihydropyrimidin-4-one] | 2 | 0.02
19 | Cc1c(C(=O)N2CCC3(CCCCN3C(=O)OC(C)(C)C)C2)cnn1-c1nc2c(c(=O)[nH]1)CCC2 (centres unmarked) [Q-0552] | 0.038 | 0.007
20 | Cc1cc(-n2cc(C(=O)N3CCC(C(F)(F)F)CC3)cn2)[nH]c(=O)c1 [Q-0460, 4-methyl-6-{4-[4-(trifluoromethyl)piperidine-1-carbonyl]-1H-pyrazol-1-yl}-1,2-dihydropyridin-2-one] | 0.6 | 0.003
21 | Cc1c(C(=O)N2CCN(C)CC2)cnn1-c1nn2cccc2c(=O)[nH]1 [Q-0756] | 0.8 | 0.004
22 | O=C(c1ccnc(-c2nc3ccsc3c(=O)[nH]2)c1)N1CCC(c2c[nH]c3ccccc23)CC1 [Q-0555] | 0.7 | 0.02
23 | O=C(c1cnn(-c2nc3ccsc3c(=O)[nH]2)c1)N1CCC(C2CC2)CC1 [Q-0711] | 0.086 | 0.002

Row | Compound | IC50 [1] [µM] | IC50 [2] [µM]
24 | CN[C@@H]1CCN(C(=O)c2cnn(-c3nc4c(c(=O)[nH]3)CCC4)c2C)C1 [Q-0588] | 4.7 | 0.07
25 | Cc1cc(=O)[nH]c(-n2ncc(C(=O)N3CCc4ccccc4[C@H]3C)c2C)n1 (single isomer, unassigned) [Q-0340] | 1.1 | 0.007
26 | Cc1c(C(=O)N2CCC3(CCCN3Cc3ccccc3)C2)cnn1-c1nc2ccsc2c(=O)[nH]1 (centres unmarked) [Q-0601] | 0.1 | 0.005
27 | O=C(c1cn(-c2nn3cccc3c(=O)[nH]2)nn1)N1CCC(C(F)(F)F)CC1 [Q-0781] | 0.2 | 0.001
28 | Cc1c(C(=O)N2CCc3ccccc3C2)cnn1-c1nc2sccc2c(=O)[nH]1 [Q-0382] | 0.1 | 0.003
29 | Cc1c(C(=O)N2CCN(c3ccccc3Cl)CC2)cnn1-c1nc2c(c(=O)[nH]1)CCC2 [Q-0570] | 0.023 | 0.003
30 | Cc1c(C(=O)N2CCC(C#N)(c3ccccc3)CC2)cnn1-c1nc2sccc2c(=O)[nH]1 [Q-0561] | 0.011 | 0.004
31 | O=C(c1cnn(-c2nn3cccc3c(=O)[nH]2)c1)N1CCC(OCC(F)(F)F)CC1 [Q-0783] | 0.3 | 0.002
32 | Cc1c(C(=O)N2CCC(F)(F)CC2)cnn1-c1nc2c(c(=O)[nH]1)CCC2 [Q-0424] | 1.1 | 0.004
33 | O=C(c1cnn(-c2nc3ccsc3c(=O)[nH]2)c1)N1CCC(C(F)(F)F)CC1 [Q-0517] | 0.1 | 0.002
34 | O=C(c1cnn(-c2nc3c(c(=O)[nH]2)CCC3)c1C1CC1)N1CCC(C(F)(F)F)CC1 [Q-0463] | 0.3 | 0.004
35 | Cc1c(C(=O)N2CC3(CCCN3C(=O)OC(C)(C)C)C2)cnn1-c1nn2cccc2c(=O)[nH]1 [Q-0785] | 0.2 | 0.001
36 | Cc1c(C(=O)N2CC3CN(C)CC3C2)cnn1-c1nn2cccc2c(=O)[nH]1 (centres unmarked) [Q-0847] | 8.8 | 0.02
37 | Cc1cc(=O)[nH]c(-n2ncc(C(=O)N3CCC(C)(C)C3)c2CC(C)C)n1 [Q-0371] | 14 | 0.07
38 | Cc1c(C(=O)N2CCNCC2)cnn1-c1nc2c(c(=O)[nH]1)CCC2 [Q-0714] | 8.1 | 0.03
39 | Cc1c(C(=O)N2CCN(C(=O)C34CC(C#N)(C3)C4)CC2)cnn1-c1nc2c(c(=O)[nH]1)CCC2 [Q-0632, 3-(4-(5-methyl-1-(4-oxo-4,5,6,7-tetrahydro-3H-cyclopenta[d]pyrimidin-2-yl)-1H-pyrazole-4-carbonyl)piperazine-1-carbonyl)bicyclo[1.1.1]pentane-1-carbonitrile] | 7.3 | 0.004
40 | Cc1c(C(=O)N2CCCCC2)cnn1-c1nc2c(c(=O)[nH]1)CCC2 [Q-0633] | 0.4 | 0.005
41 | Cc1c(C(=O)N2CC(c3ccc(F)c(F)c3)C2)cnn1-c1nc2c(c(=O)[nH]1)CCC2 [Q-0749] | 0.05 | 0.003
42 | Cc1c(C(=O)N2CCC(c3nc4ccccc4s3)CC2)cnn1-c1nn2cccc2c(=O)[nH]1 [Q-0608] | 0.056 | 0.002
43 | Cc1c(C(=O)N2CCC(OCC(F)(F)F)CC2)cnn1-c1nc2c(c(=O)[nH]1)CCC2 [Q-0521] | 0.1 | 0.008
44 | Cc1c(C(=O)N2CCN(c3ccc(C#N)cc3)CC2)cnn1-c1nn2cccc2c(=O)[nH]1 [Q-0829] | 0.08 | 0.001
45 | O=C(c1cnn(-c2nn3cccc3c(=O)[nH]2)c1)N1CCC(C2CC2)CC1 [Q-0709] | 0.028 | 0.001
46 | Cc1c(C(=O)N2CCN(C(=O)OC(C)(C)C)CC23CCC3)cnn1-c1nn2cccc2c(=O)[nH]1 [Q-0798] | 0.3 | 0.002
